Patent US20210198256A1, “COMPOUNDS FOR THE DEGRADATION OF BRD9 OR MTH1” (C4 Therapeutics, Inc., priority 2018, published 2021)

Tested on: SMARTCAR-MTH1-wt-HiBiT (Jurkat.7 cells)
Assay: HiBit Lytic Assay (HiBit DC50, MTH1 degraders of Table 2)
Format: cell-based, human
Conditions: Jurkat.7 SMARTCAR-MTH1-wt-HiBiT cells, compound treatment time 4 hr, 11-point half log dose response
In short: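 Jurkat.7 cells expressing SMARTCAR-MTH1-wt-HiBiT were treated at 37° C with 11-point half-log dilutions (top final 1000 nM or 833 nM, duplicates, 0.1% DMSO). Remaining HiBiT-tagged protein was read by Nano-Glo HiBiT lytic luminescence, normalized to media-only and DMSO controls.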

Row | DC50 | Compound
1 | < 100 nM | CNc1c(C(=O)NC2CC2)cnc2cc(F)c(-c3ccc(C(=O)NCCCCn4cc(CNc5cccc6c5C(=O)N(C5CCC(=O)NC5=O)C6=O)nn4)c(F)c3)cc12 (stereo not shown) [Compound 411, N-cyclopropyl-6-[4-[4-[4-[[[2-(2,6-dioxo-3-piperidyl)-1,3-dioxo-isoindolin-4-yl]amino]methyl]triazol-1-yl]butylcarbamoyl]-3-fluoro-phenyl]-7-fluoro-4-(methylamino)quinoline-3-carboxamide]
2 | < 100 nM | CNc1c(C(=O)NC2CC2)cnc2cc(F)c(-c3ccc(C(=O)NCCCCn4cc(COc5cccc6c5C(=O)N(C5CCC(=O)NC5=O)C6=O)nn4)c(F)c3)cc12 (stereo not shown) [Compound 412, N-cyclopropyl-6-[4-[4-[4-[[2-(2,6-dioxo-3-piperidyl)-1,3-dioxo-isoindolin-4-yl]oxymethyl]triazol-1-yl]butylcarbamoyl]-3-fluoro-phenyl]-7-fluoro-4-(methylamino)quinoline-3-carboxamide]
3 | < 100 nM | O=C1CCC(N2C(=O)c3cccc(OCc4cn(CCCCNC(=O)c5ccc(-c6cc7c(Nc8ccccc8)c(C(=O)NC8CC8)cnc7cc6F)cc5F)nn4)c3C2=O)C(=O)N1 (stereo not shown) [Compound 413, 4-anilino-N-cyclopropyl-6-[4-[4-[4-[[2-(2,6-dioxo-3-piperidyl)-1,3-dioxo-isoindolin-4-yl]oxymethyl]triazol-1-yl]butylcarbamoyl]-3-fluoro-phenyl]-7-fluoro-quinoline-3-carboxamide]
4 | < 100 nM | COc1cc2ncc(C(=O)NC3CC3)c(Nc3ccccc3)c2cc1-c1ccc(C(=O)NCCCCn2cc(COc3cccc4c3C(=O)N(C3CCC(=O)NC3=O)C4=O)nn2)c(F)c1 (stereo not shown) [Compound 414, 4-anilino-N-cyclopropyl-6-[4-[4-[4-[[2-(2,6-dioxo-3-piperidyl)-1,3-dioxo-isoindolin-4-yl]oxymethyl]triazol-1-yl]butylcarbamoyl]-3-fluoro-phenyl]-7-methoxy-quinoline-3-carboxamide]
5 | < 100 nM | O=C1CCC(N2C(=O)c3cccc(OCc4cn(CCCCNC(=O)c5ccc(-c6cc7c(Nc8ccccc8)c(C(=O)NC8CC8)cnc7cc6C(F)(F)F)cc5F)nn4)c3C2=O)C(=O)N1 (stereo not shown) [Compound 415, 4-anilino-N-cyclopropyl-6-[4-[4-[4-[[2-(2,6-dioxo-3-piperidyl)-1,3-dioxo-isoindolin-4-yl]oxymethyl]triazol-1-yl]butylcarbamoyl]-3-fluoro-phenyl]-7-(trifluoromethyl)quinoline-3-carboxamide]
6 | < 100 nM | CNc1c(C(=O)NC2CC2)cnc2cc(F)c(-c3ccc(C(=O)NCCCCNC(=O)CCc4cccc5c4CN(C4CCC(=O)NC4=O)C5=O)c(F)c3)cc12 (stereo not shown) [Compound 419, N-cyclopropyl-6-[4-[4-[3-[2-(2,6-dioxo-3-piperidyl)-1-oxo-isoindolin-4-yl]propanoylamino]butylcarbamoyl]-3-fluoro-phenyl]-7-fluoro-4-(methylamino)quinoline-3-carboxamide]
7 | < 100 nM | CNc1c(C(=O)NC2CC2)cnc2cc(C(F)(F)F)c(-c3ccc(C(=O)NCCCCn4cc(C5(Nc6cccc7c6C(=O)N(C6CCC(=O)NC6=O)C7=O)CC5)nn4)c(F)c3)cc12 (stereo not shown) [Compound 421, N-cyclopropyl-6-[4-[4-[4-[1-[[2-(2,6-dioxo-3-piperidyl)-1,3-dioxo-isoindolin-4-yl]amino]cyclopropyl]triazol-1-yl]butylcarbamoyl]-3-fluoro-phenyl]-4-(methylamino)-7-(trifluoromethyl)quinoline-3-carboxamide]
8 | < 100 nM | O=C(CNc1cccc2c1C(=O)N(C1CCC(=O)NC1=O)C2=O)NCCCCNC(=O)c1ccc(-c2cc3c(NC45CC(C4)C5)c(C(=O)NC4CC4)cnc3cc2F)cc1F (stereo not shown) [Compound 424, 4-(3-bicyclo[1.1.1]pentanylamino)-N-cyclopropyl-6-[4-[4-[[2-[[2-(2,6-dioxo-3-piperidyl)-1,3-dioxo-isoindolin-4-yl]amino]acetyl]amino]butylcarbamoyl]-3-fluoro-phenyl]-7-fluoro-quinoline-3-carboxamide]
9 | < 100 nM | CC(NC(=O)CCCCNC(=O)CNc1cccc2c1C(=O)N(C1CCC(=O)NC1=O)C2=O)c1ccc(-c2cc3c(Nc4ccccc4)c(C(=O)NC4CC4)cnc3cc2F)cc1F (stereo not shown) [Compound 429, 4-anilino-N-cyclopropyl-6-[4-[1-[5-[[2-[[2-(2,6-dioxo-3-piperidyl)-1,3-dioxo-isoindolin-4-yl]amino]acetyl]amino]pentanoylamino]ethyl]-3-fluoro-phenyl]-7-fluoro-quinoline-3-carboxamide]
10 | < 100 nM | CNc1c(C(=O)NC2CC2)cnc2cc(C(F)(F)F)c(-c3ccc(C(=O)NCCCCn4cc(C(C)Nc5cccc6c5C(=O)N(C5CCC(=O)NC5=O)C6=O)nn4)c(F)c3)cc12 (stereo not shown) [Compound 430, N-cyclopropyl-6-[4-[4-[4-[1-[[2-(2,6-dioxo-3-piperidyl)-1,3-dioxo-isoindolin-4-yl]amino]ethyl]triazol-1-yl]butylcarbamoyl]-3-fluoro-phenyl]-4-(methylamino)-7-(trifluoromethyl)quinoline-3-carboxamide]
11 | < 1000 nM | CNc1c(C(=O)NC2CC2)cnc2cc(C(F)(F)F)c(-c3ccc(C(=O)NCCCCn4cc(C(C)Nc5cccc6c5C(=O)N(C5CCC(=O)NC5=O)C6=O)nn4)nc3)cc12 (stereo not shown) [Compound 431, N-cyclopropyl-6-(6-((4-(4-(1-((2-(2,6-dioxopiperidin-3-yl)-1,3-dioxoisoindolin-4-yl)amino)ethyl)-1H-1,2,3-triazol-1-yl)butyl)carbamoyl)pyridin-3-yl)-4-(methylamino)-7-(trifluoromethyl)quinoline-3-carboxamide]
12 | < 100 nM | COc1cc2ncc(C(=O)NC3CC3)c(Nc3ccccc3)c2cc1-c1ccc(C(=O)NCCCCn2cc(C(C)Nc3cccc4c3C(=O)N(C3CCC(=O)NC3=O)C4=O)nn2)c(F)c1 (stereo not shown) [Compound 432, N-cyclopropyl-6-(4-((4-(4-(1-((2-(2,6-dioxopiperidin-3-yl)-1,3-dioxoisoindolin-4-yl)amino)ethyl)-1H-1,2,3-triazol-1-yl)butyl)carbamoyl)-3-fluorophenyl)-7-methoxy-4-(phenylamino)quinoline-3-carboxamide]
13 | < 100 nM | CC(Nc1cccc2c1C(=O)N(C1CCC(=O)NC1=O)C2=O)c1cn(CCCCNC(=O)c2ccc(-c3cc4c(Nc5ccccc5)c(C(=O)NC5CC5)cnc4cc3F)cc2F)nn1 (stereo not shown) [Compound 433, N-cyclopropyl-6-(4-((4-(4-(1-((2-(2,6-dioxopiperidin-3-yl)-1,3-dioxoisoindolin-4-yl)amino)ethyl)-1H-1,2,3-triazol-1-yl)butyl)carbamoyl)-3-fluorophenyl)-7-fluoro-4-(phenylamino)quinoline-3-carboxamide]
14 | < 100 nM | CC(Nc1cccc2c1C(=O)N(C1CCC(=O)NC1=O)C2=O)c1cn(CCCCNC(=O)c2ccc(-c3cc4c(Nc5ccccc5)c(C(=O)NC5CC5)cnc4cc3C(F)(F)F)cc2F)nn1 (stereo not shown) [Compound 434, N-cyclopropyl-6-(4-((4-(4-(1-((2-(2,6-dioxopiperidin-3-yl)-1,3-dioxoisoindolin-4-yl)amino)ethyl)-1H-1,2,3-triazol-1-yl)butyl)carbamoyl)-3-fluorophenyl)-4-(phenylamino)-7-(trifluoromethyl)quinoline-3-carboxamide]
15 | < 100 nM | CNc1c(C(=O)NC2CC2)cnc2cc(C(F)(F)F)c(-c3ccc(C(=O)NCCCCn4cc(C(C)(C)Nc5cccc6c5C(=O)N(C5CCC(=O)NC5=O)C6=O)nn4)c(F)c3)cc12 (stereo not shown) [Compound 435, N-cyclopropyl-6-(4-((4-(4-(2-((2-(2,6-dioxopiperidin-3-yl)-1,3-dioxoisoindolin-4-yl)amino)propan-2-yl)-1H-1,2,3-triazol-1-yl)butyl)carbamoyl)-3-fluorophenyl)-4-(methylamino)-7-(trifluoromethyl)quinoline-3-carboxamide]
16 | < 100 nM | CNc1c(C(=O)NC2CC2)cnc2cc(F)c(-c3ccc(C(=O)NCCCCn4cc(C(C)(C)Nc5cccc6c5C(=O)N(C5CCC(=O)NC5=O)C6=O)nn4)c(F)c3)cc12 (stereo not shown) [Compound 436, N-cyclopropyl-6-(4-((4-(4-(2-((2-(2,6-dioxopiperidin-3-yl)-1,3-dioxoisoindolin-4-yl)amino)propan-2-yl)-1H-1,2,3-triazol-1-yl)butyl)carbamoyl)-3-fluorophenyl)-7-fluoro-4-(methylamino)quinoline-3-carboxamide]
17 | < 100 nM | CNc1c(C(=O)NC2CC2)cnc2cc(C(F)(F)F)c(-c3ccc(C(=O)NCCCCn4cc(C(C)(C)Nc5cccc6c5C(=O)N(C5CCC(=O)NC5=O)C6=O)nn4)nc3)cc12 (stereo not shown) [Compound 437, N-cyclopropyl-6-(6-((4-(4-(2-((2-(2,6-dioxopiperidin-3-yl)-1,3-dioxoisoindolin-4-yl)amino)propan-2-yl)-1H-1,2,3-triazol-1-yl)butyl)carbamoyl)pyridin-3-yl)-4-(methylamino)-7-(trifluoromethyl)quinoline-3-carboxamide]
18 | < 100 nM | O=C1CCC(N2Cc3c(CCCC(O)C(=O)NCCNC(=O)c4ccc(-c5cc6c(Nc7ccccc7)c(C(=O)NC7CC7)cnc6cc5F)cc4F)cccc3C2=O)C(=O)N1 (stereo not shown) [Compound 439, N-cyclopropyl-6-(4-((2-(5-(2-(2,6-dioxopiperidin-3-yl)-1-oxoisoindolin-4-yl)-2-hydroxypentanamido)ethyl)carbamoyl)-3-fluorophenyl)-7-fluoro-4-(phenylamino)quinoline-3-carboxamide]
19 | < 100 nM | O=C1CCC(N2C(=O)c3cccc(NCC(O)C(=O)NCCCNC(=O)c4ccc(-c5cc6c(Nc7ccccc7)c(C(=O)NC7CC7)cnc6cc5F)cc4F)c3C2=O)C(=O)N1 (stereo not shown) [Compound 440, N-cyclopropyl-6-(4-((3-(3-((2-(2,6-dioxopiperidin-3-yl)-1,3-dioxoisoindolin-4-yl)amino)-2-hydroxypropanamido)propyl)carbamoyl)-3-fluorophenyl)-7-fluoro-4-(phenylamino)quinoline-3-carboxamide]
